Like-named read-outs stand apart in the source and are kept apart here.
Columns and labels:
[1] = test system: Asexual parasites of P. falciparum strain 3D7; assay: In vitro drug activity on asexual parasites (SYBR Green assay); type: cell-based, Plasmodium falciparum
Experimental: Cell culture. Asexual parasites of P. falciparum strain 3D7 were cultured as described previously [Trager W, et al., Journal of Parasitology 2005, 91: 484-486], Stage III-V gametocytes were selected and enriched with 3-day treatment with 50 mM N-acetylglucosamine (NAG) and the following Percoll density gradient centrifugation after gametocyte production [Tanaka T Q, et al., Molecular and Biochemical Parasitology, 2011, 111: 160-163], Gametocytes of HB3 and Dd2 strains were produced and then set up for assay in a similar process. HepG2 cells (ATCC, cat. no. 77400) were cultured in 175-cm^2 tissue culture flasks with 30 ml growth medium at 37° C. in a 5% CO2 humidified atmosphere. Growth medium was made with Dulbecco's Modified Eagle Medium with 10% fetal bovine serum (FBS). Growth medium was replaced every other day and cells were passed at 75% confluence.
Asexual parasites of P. falciparum strain 3D7 were cultured as described previously (Trager, W. et al., J. Parasitol. 2005, 91(3): 484-486). Drug activity on asexual stage parasites was tested using a SYBR Green assay as described previously (Eastman, R. T. et al., Antimicrob. Agents Chemother. 2013, 57(1): 425-435; Smilkstein, M. et al., Antimicrob. Agents Chemother. 2004, 48(5): 1803-1806). Briefly, parasites were diluted to 0.5% parasitemia in complete culture medium with 2% hematocrit and drugs diluted in DMSO (≤0.5%) and were loaded into a 96-well plate (200 μl/well). No drug and RBC alone wells were included as positive and background controls, respectively, and each testing condition was examined in duplicated. After 72 h incubation under the standard culture condition and a freeze-thaw lysis step at −80° C. and room temperature, 100 μl/well of lysis buffer containing SYBR Green I was added to the parasite culture and incubated for 30 min at room temperature. The fluorescence of each well was measured at 520 nm following excitation at 490 nm using a FLUOstar Optima™ microplate reader (BMG Labtech).

mTOR = mTOR (Homo sapiens, UniProt P42345); assay: mTOR activity (no method described); type: biochemical
[2] = Microsomal stability (rat); type: in vitro ADME; conditions: rat microsomes
Solubility at pH 7.4 = type: physicochemical
[3] = P. falciparum 3D7 asexual parasites, 72 h, SYBR Green

Compound | EC50 [1] | mTOR (mTOR) | Microsomal Stability (rat) T1/2 [2] | Sol @ pH 7.4 (Solubility at pH 7.4) | EC50 [1, 3]
O=C(c1ccc(-n2c(=O)ccc3c(Cl)nc4ccc(-c5ccc(Cl)cc5)cc4c32)cc1)N1CCOCC1 [Compound 210] | 14500 nM | 100 µM | 2.7 min | <1 ug/mL | –
COc1cc(C(=O)NCCCN2CCS(=O)(=O)CC2)ccc1-n1c(=O)ccc2cnc3ccc(-c4ccc(Cl)cc4)cc3c21 [Compound 226] | 208 nM | 8.446 µM | – | – | –
COc1cc(C(=O)NCCCN(CCO)CCO)ccc1-n1c(=O)ccc2cnc3ccc(-c4ccc(Cl)cc4)cc3c21 [Compound 227] | 66.5 nM | 16 µM | – | – | –
CCN(CC)CCCNC(=O)c1ccc(-n2c(=O)ccc3cnc4ccc(-c5ccc(Cl)cc5)cc4c32)c(OC)c1 [Compound 228] | 195 nM | 11.22 µM | – | – | –
COc1cc(C(=O)NCCCN2CCCCC2)ccc1-n1c(=O)ccc2cnc3ccc(-c4ccc(Cl)cc4)cc3c21 [Compound 229] | 232 nM | 19.25 µM | – | – | –
COc1cc(C(=O)NCCCN(C)C)ccc1-n1c(=O)ccc2cnc3ccc(-c4ccc(Cl)cc4)cc3c21 [Compound 230] | 98.2 nM | 50 µM | – | – | –
COc1cc(C(=O)NCCN2CCCC2)ccc1-n1c(=O)ccc2cnc3ccc(-c4ccc(Cl)cc4)cc3c21 [Compound 248] | 329 nM | 23.38 µM | 10.6 min | 51.2 ug/mL | –
COc1cc(C(=O)NCCN2CCN(C)CC2)ccc1-n1c(=O)ccc2cnc3ccc(-c4ccc(Cl)cc4)cc3c21 [Compound 252] | – | 100 µM | – | – | –
O=C(NCCCN1CCCCC1)c1ccc(-n2c(=O)ccc3cnc4ccc(-c5ccc(Cl)cc5)cc4c32)cc1 [Compound 260] | 62.4 nM | 5.024 µM | 2.1 min | 0 ug/mL | –
O=C(NCCCN1CCS(=O)(=O)CC1)c1ccc(-n2c(=O)ccc3cnc4ccc(-c5ccc(Cl)cc5)cc4c32)cc1 [Compound 261] | 60 nM | 1.871 µM | 1.7 min | 0 ug/mL | –
CN(C)CCN(C)C(=O)c1ccc(-n2c(=O)ccc3cnc4ccc(-c5ccc(Cl)cc5)cc4c32)cc1 [Compound 299] | 55.3 nM | 5.83 µM | – | – | –
CCC(=O)N(CC)CCNC(=O)c1ccc(-n2c(=O)ccc3cnc4ccc(-c5ccc(Cl)cc5)cc4c32)cc1 [Compound 305] | 483 nM | 4.727 µM | – | – | –
O=C(NCCC1CCN(C2COC2)CC1)c1ccc(-n2c(=O)ccc3cnc4ccc(-c5ccc(Cl)cc5)cc4c32)cc1 [Compound 306] | 100 nM | 8.864 µM | – | – | –
CN1CCN(Cc2ccc(-c3ccc4ncc5ccc(=O)n(-c6ccc(C(=O)NC7CC7)cc6)c5c4c3)cc2)CC1 [Compound 307] | 191 nM | 39.9 µM | – | – | –
O=C(NCCN1CCCC1=O)c1ccc(-n2c(=O)ccc3cnc4ccc(-c5ccc(Cl)cc5)cc4c32)cc1 [Compound 309] | 554 nM | 3.824 µM | – | – | –
CCC(=O)N(C)CCNC(=O)c1ccc(-n2c(=O)ccc3cnc4ccc(-c5ccc(Cl)cc5)cc4c32)cc1 [Compound 310] | 414 nM | 3.373 µM | – | – | –
CC(C)(O)CNC(=O)c1ccc(-n2c(=O)ccc3cnc4ccc(-c5ccc(Cl)cc5)cc4c32)cc1 [Compound 311] | 53.3 nM | 0.1982 µM | – | – | –
N#Cc1cc(-n2c(=O)ccc3cnc4ccc(-c5ccc(Cl)cc5)cc4c32)ccc1C(=O)NC1CC1 [Compound 312] | 1850 nM | 500 µM | – | – | –
Nc1nc2ccc(-c3ccc(Cl)cc3)cc2c2c1ccc(=O)n2-c1ccc(C(=O)N2CCOCC2)cc1 [Compound 314] | 429 nM | 0.78 µM | – | – | –
O=C(NC1CC1)c1ccc(-n2c(=O)ccc3cnc4ccc(-c5ccc(Cl)cc5)cc4c32)cn1 [Compound 315] | 137 nM | 100 µM | – | – | –
COc1cc(C(=O)NCCN(C)C)ccc1-n1c(=O)ccc2cnc3ccc(-c4ccc(F)c(O)c4)cc3c21 [Compound 316] | 412 nM | 8.154 µM | – | – | –
COc1cc(C(=O)NCCN(C)C)ccc1-n1c(=O)ccc2cnc3ccc(-c4ccc(Cl)cc4)cc3c21 [Compound 317] | 202 nM | 8.572 µM | – | – | –
NC1(c2ccc(-c3ccc4ncc5ccc(=O)n(-c6ccc7c(c6)CNS7(=O)=O)c5c4c3)cc2)CC1 [Compound 383] | – | – | – | – | 62.3 nM
O=C1c2ccc(-n3c(=O)ccc4cnc5ccc(-c6ccc(Cl)cc6)cc5c43)cc2C(=O)N1C1CC1 [Compound 384] | – | – | – | – | 1320 nM
Cc1ccc(C#N)cc1-n1c(=O)n(C)c2cnc3ccc(-c4ccc[nH]4)cc3c21 [Compound 419] | 82.9 nM | 30.38 µM | – | – | –
Cc1ccc(C#N)cc1-n1c(=O)n(C)c2cnc3ccc(-c4cccn4C)cc3c21 [Compound 420] | 144 nM | 30.22 µM | – | – | –
CC(=O)N1CCN(c2cc(C)c(-n3c(=O)n(C)c4cnc5ccc(-c6cccc(C#N)c6)cc5c43)cc2C#N)CC1 [Compound 423] | 50.4 nM | 15.4 µM | – | – | –
Cc1cc(N2CCNCC2)c(C#N)cc1-n1c(=O)n(C)c2cnc3ccc(-c4ccc(F)c(C#N)c4)cc3c21 [Compound 427] | 75.2 nM | 30.6 µM | – | – | –
Cc1cc(NCCN(C)C)c(C#N)cc1-n1c(=O)n(C)c2cnc3ccc(-c4cccc(C#N)c4)cc3c21 [Compound 430] | 58.5 nM | 4.622 µM | – | – | –

The remaining compounds from weak to strong by EC50 [1], led by results:

EC50 [1] | mTOR (mTOR) | Microsomal Stability (rat) T1/2 [2] | Sol @ pH 7.4 (Solubility at pH 7.4) | EC50 [1, 3] | Compound
48.4 nM | 5 µM | – | – | – | Cc1ccc(C#N)cc1-n1c(=O)n(C)c2cnc3ccc(-c4ccoc4)cc3c21 [Compound 425]
39 nM | 1.429 µM | – | – | – | Cc1cc(C(=O)NCCN2CCNCC2)ccc1-n1c(=O)ccc2cnc3ccc(-c4ccc(Cl)cc4)cc3c21 [Compound 313]
34.3 nM | 2.541 µM | 24.4 min | 0 ug/mL | – | CN(C)CCCNC(=O)c1ccc(-n2c(=O)ccc3cnc4ccc(-c5ccc(Cl)cc5)cc4c32)cc1 [Compound 258]
32.7 nM | 3.792 µM | – | – | – | CCN(CCN(C)C)C(=O)c1ccc(-n2c(=O)ccc3cnc4ccc(-c5ccc(Cl)cc5)cc4c32)cc1 [Compound 300]
29.4 nM | 6.418 µM | – | – | – | Cc1cc(N2CC(N)C2)c(C#N)cc1-n1c(=O)n(C)c2cnc3ccc(-c4cccc(C#N)c4)cc3c21 [Compound 426]
27.8 nM | 11 µM | – | – | – | Cc1cc(N2CC(N)C2)c(C#N)cc1-n1c(=O)n(C)c2cnc3ccc(-c4ccc(F)cc4)cc3c21 [Compound 428]
24.2 nM | 0.6559 µM | 2.6 min | 0 ug/mL | – | O=C(NCCCN(CCO)CCO)c1ccc(-n2c(=O)ccc3cnc4ccc(-c5ccc(Cl)cc5)cc4c32)cc1 [Compound 259]
23.6 nM | 2.099 µM | – | – | – | O=C(NC1CC1)c1ccc(-n2c(=O)ccc3cnc4ccc(-c5ccc(Cl)c(F)c5)cc4c32)cc1 [Compound 308]
23 nM | 12.51 µM | – | – | – | Cc1ccc(C#N)cc1-n1c(=O)n(C)c2cnc3ccc(-c4ccsc4)cc3c21 [Compound 424]
19.3 nM | 0.994 µM | >30 min | 0 ug/mL | – | O=C(NCCN1CCNCC1)c1ccc(-n2c(=O)ccc3cnc4ccc(-c5ccc(Cl)cc5)cc4c32)cc1 [Compound 98]
19.2 nM | 0.8535 µM | – | – | – | N#CC1(NC(=O)c2ccc(-n3c(=O)ccc4cnc5ccc(-c6ccc(Cl)cc6)cc5c43)cc2)CC1 [Compound 304]
18.9 nM | 18.94 µM | – | – | – | Cc1cc(N2CCNCC2)c(C#N)cc1-n1c(=O)n(C)c2cnc3ccc(-c4cccs4)cc3c21 [Compound 421]
17.1 nM | 6.1 µM | – | – | – | Cc1ccc(C#N)cc1-n1c(=O)n(C)c2cnc3ccc(-c4cccc(S(N)(=O)=O)c4)cc3c21 [Compound 433]
10.5 nM | 12.57 µM | – | – | – | CC(=O)N1CCN(c2cc(C)c(-n3c(=O)n(C)c4cnc5ccc(-c6ccc(Cl)cc6)cc5c43)cc2C#N)CC1 [Compound 429]
7.93 nM | 0.7002 µM | – | – | – | Cn1c(=O)n(-c2ccc(N3CCNCC3)c(C#N)c2)c2c3cc(-c4cccc(C#N)c4)ccc3ncc21 [Compound 418]
5.87 nM | 1.87 µM | – | – | – | CC(=O)N1CCN(c2cc(C)c(-n3c(=O)n(C)c4cnc5ccc(-c6ccc(F)cc6)cc5c43)cc2C#N)CC1 [Compound 422]

From US11753408B2, “Compounds and method for blocking transmission of malarial parasite” (The United States of America, as represented by the …, priority 2016, dated 2023)
